Literature values as cited in US9884129B2, “Release of agents from cells” (The Brigham and Women s Hospital, Inc., priority 2009, dated 2018).

Tested on: tumor
Details: with neural stem cells modified to produce cytosine deaminase; systemic prodrug

## Nc1nc(=O)[nH]cc1F [5-fluorocytosine]
  reduction in tumor mass: 80%
